Source: BindingDB's records for doi:10.1021/jm034188j (Morphochem, 2004)

Target: Methionine aminopeptidase (Staphylococcus aureus (strain MW2), UniProt P0A079)
Assay: MetAP Inhibition Assay
Details: pH 7.5; 22 °C
Procedure: The MetAP reaction with Co2+ as a cofactor is coupled to a prolyl aminopeptidase (ProAP) using Met-Pro-p-nitroanilide as substrate. MetAP-catalyzed cleavage of the N-terminal methionine produces prolyl-p-nitroanilide, which is rapidly hydrolyzed by ProAP to release a chromogenic product. This allows the MetAP reaction to be continuously monitored at 405 nm on a UVVIS spectrophotometer. The initial rate was calculated from the early part of the reaction progress curve (<5 min). Activity assays were performed in triplicate using eight to 16 concentrations of substrate or inhibitor.

Methionine aminopeptidase, sequence (P0A079 whole entry): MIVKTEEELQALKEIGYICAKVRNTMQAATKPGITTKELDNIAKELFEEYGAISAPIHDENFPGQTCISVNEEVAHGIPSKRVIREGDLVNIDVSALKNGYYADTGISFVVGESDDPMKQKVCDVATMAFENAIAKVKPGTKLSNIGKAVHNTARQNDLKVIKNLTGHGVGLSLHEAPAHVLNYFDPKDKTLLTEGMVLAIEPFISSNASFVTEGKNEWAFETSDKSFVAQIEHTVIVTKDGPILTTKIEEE

CSCC[C@H](N)C(=O)c1nccs1 [(2S)-2-amino-4-(methylsulfanyl)-1-(1,3-thiazol-2-yl)butan-1-one]
IC50: 19 µM

CSCC[C@H](N)C(=O)c1ccccn1 [(2S)-2-amino-4-(methylsulfanyl)-1-(pyridin-2-yl)butan-1-one]
IC50: 16 µM
